Experimental data taken from EP3383888B9, “NEW PEPTIDES HAVING ANTIMICROBIAL ACTIVITY AND NEW ENZYME CAPABLE OF CONVERTING L-CONFIGURED RESIDUE IN D-CONFIGURED AMINO ACID IN A PEPTIDE” (Institut national de recherche pour l'agriculture, …, priority 2015, dated 2017).
Square brackets hold non-standard residues; d marks the D form. Ends that are not written are not given here. Peptide text beside a SMILES is read from it. d(aIle) = CC[C@H](C)[C@@H](N)C(=O)O

Key:
B. subtilis [1] = test: Inhibition assay on solid medium (plate growth inhibition); format: cell-based, Bacillus subtilis; settings: 200 µg of peptide spotted, 37°C, Fig. 5A
Method: An overnight culture of the bacterial strain to be assayed was freshly inoculated to sterile BHI liquid medium. After 4 hours of bacterial growth at 37°C, the medium was diluted to 1/1000 and inoculated into a soft agarose medium pre-heated at 42°C. The agarose medium containing bacteria was overlaid on a previously jellified sterile BHI agarose layer. 200 µg of peptide was spotted onto the plate and bacterial growth proceeded at 37°C.

B. subtilis [2] = test: Inhibition assay on liquid medium (OD at 600 nm); format: cell-based, Bacillus subtilis; settings: for Growth of B. subtilis in liquid LB medium (bacterial growth inhibition): Fig. 5B, Fig. 8a
Method: (§1) An overnight culture of the bacterial strain to be assayed was freshly inoculated to sterile LB liquid medium. After 4 hours of bacterial growth at 37°C, the medium was diluted to 1/10,000 and inoculated into sterile liquid LB or BHI medium. Peptide solution was added (1/100) to a final concentration ranging from 0.01 to 100µM and OD at 600 nm was recorded continuously using a Tecan microplate reader (Infinite® 200 PRO series).

Streptococcus agalactiae = test: Inhibition assay on liquid medium (OD at 600 nm); format: cell-based; settings: peptide at 100µM; Fig. 12
Method: as §1

Row | Molecule | Plate growth inhibition assay of B. subtilis (B. subtilis [1]) | Growth of B. subtilis in liquid LB medium (bacterial growth inhibition) (B. subtilis [2]; liquid LB medium) | Growth of B. subtilis in liquid LB medium (bacterial growth inhibition) (B. subtilis [2]; liquid LB medium, listed as epimerized peptide) | Growth of B. subtilis after addition of peptide at mid-exponential phase (cell density) (B. subtilis [2]; liquid LB medium, peptide added after 3 hours of growth, Fig. 9) | Growth of Streptococcus agalactiae in liquid BHI medium (Streptococcus agalactiae) | potency relative to the YydF18-49DD peptide (B. subtilis [2]; B. subtilis growth ratio, Fig. 8b&c)
1 | CC[C@H](C)[C@@H](NC(=O)[C@H](Cc1c[nH]c2ccccc12)NC(=O)[C@H](CCCNC(=N)N)NC(=O)[C@H](CC(N)=O)NC(=O)[C@H](CCC(=O)O)NC(=O)[C@H](CCCCN)NC(=O)[C@H](CO)NC(=O)[C@H](CCCCN)NC(=O)[C@H](NC(=O)[C@H](Cc1ccccc1)NC(=O)[C@H](Cc1ccc(O)cc1)NC(=O)[C@H](Cc1c[nH]c2ccccc12)NC(=O)[C@H](CC(C)C)NC(=O)[C@H](CC(=O)O)NC(=O)[C@H](CC(N)=O)NC(=O)[C@@H](NC(=O)[C@H](CCCCN)NC(=O)[C@H](C)NC(=O)[C@H](CC(C)C)NC(=O)[C@H](CCCCN)NC(=O)[C@H](CCC(N)=O)NC(=O)[C@H](CO)NC(=O)[C@H](CCC(=O)O)NC(=O)[C@H](CC(=O)O)NC(=O)[C@H](CC(C)C)NC(=O)[C@H](CC(C)C)NC(=O)CNC(C)=O)C(C)C)C(C)C)C(=O)N[C@@H](CC(C)C)C(=O)NCC(=O)N[C@@H](CO)C(=O)NCC(=O)N[C@@H](Cc1c[nH]cn1)C(=O)O [YydF18-49DD, Ac-GLLDESQKLAKVNDLWYF{d-V}KSKENRW{d-I}LGSGH (SEQ ID No 20)] (Ac-GLLDESQKLAKVNDLWYF[dV]KSKENRW[d(aIle)]LGSGH-OH) | strong inhibition growth | bacterial growth inhibition | strong and persistent inhibition | – | – | –
2 | Ac-GLLDESQKLAKVNDLWYFVKSKENRWILGSGH (SEQ ID No 20) [YydF18-49, truncated form of YydF, residues 18 to 49, no modification (all L-amino acids)] | devoid of activity | – | – | a clear slow down followed by a decrease of the cell density | – | –
3 | WYFVKSQSNRWIVGSGH (SEQ ID No 65) (WYF[dV]KSQSNRW[dI]VGSGH) [Peptide-SP] | – | – | – | – | inhibitors | –
4 | YydF33-49DD: peptide of SEQ ID No 61 with the two epimerized residues D-Val36 and D-Ile44 (WYF[dV]KSKENRW[dI]LGSGH) | – | inhibit bacterial growth | – | – | inhibited | 100 times
